From paper doi:10.1101/2025.08.21.671483v1, “In vitro and in vivo activity profiles of broad-spectrum bacterial ATP synthase inhibitors” (biorxiv, 2025)
Values after ≈ are worked out from the molar mass of the structure shown. Where two headings read alike, the source gives them in different places.

Columns and labels:
[1] = system: T1, S. aureus ATCC 29740 (Newbould); experiment: microbe, parasite or virus in culture; parameters: species or system bacteria; CLSI broth microdilution MIC, no visible growth; conditions: Staphylococcus aureus
T1 construct: ATCC 29740 (Newbould)

S. aureus ATP synthase = molecular target: T2, S. aureus ATP synthase (Staphylococcus aureus, UniProt Q99SF0); experiment: ATP production by membrane vesicles, luciferase luminescence; format: biochemical; conditions: […] NADH, 1 mM ADP, 10 mM potassium phosphate; 30 min preincubation, 60 min reaction
T2 construct: gene atpE
Text: ATP production by membrane vesicles, luciferase luminescence on S. aureus ATP synthase

S. aureus ATCC 29740hemB = experiment: microbe, parasite or virus in culture; conditions: Staphylococcus aureus, ATCC29740HEMB, read-out: MIC
E. coli ATP synthase = molecular target: T3, E. coli ATP synthase (Escherichia coli, UniProt P68699); experiment: ATP production by membrane vesicles, luciferase luminescence; format: biochemical; conditions: […] NADH, 1 mM ADP, 10 mM potassium phosphate; 30 min preincubation, 60 min reaction
T3 construct: gene atpE
Text: ATP production by membrane vesicles, luciferase luminescence on E. coli ATP synthase

E. coli MC4100 WT = system: T4, E. coli MC4100 WT; experiment: microbe, parasite or virus in culture; parameters: species or system bacteria; CLSI broth microdilution MIC, no visible growth; conditions: Escherichia coli, MC4100WT
T4 construct: MC4100 (ATCC 35695)

E. coli MC4100 lptD4213 = system: T5, E. coli MC4100 lptD4213; experiment: microbe, parasite or virus in culture; conditions: Escherichia coli, MC4100LPTD4213, read-out: MIC
T5 construct: MC4100 lptD4213 membrane-compromised

E. coli MC4100 acrAB = system: T6, E. coli MC4100 acrAB; experiment: microbe, parasite or virus in culture; conditions: Escherichia coli, MC4100ACRAB, read-out: MIC
T6 construct: MC4100 acrAB efflux-deficient

E. coli ATCC 25922 [2] = system: T7, E. coli ATCC 25922; experiment: microbe, parasite or virus in culture; parameters: species or system bacteria; CLSI broth microdilution MIC, no visible growth; conditions: Escherichia coli
T7 construct: ATCC 25922

Escherichia coli ec308 = system: T8, Escherichia coli ec308; experiment: microbe, parasite or virus in culture; parameters: species or system bacteria; CLSI broth microdilution MIC, no visible growth
T8 construct: ec308

Escherichia coli ec305 = system: T9, Escherichia coli ec305; experiment: microbe, parasite or virus in culture; parameters: species or system bacteria; CLSI broth microdilution MIC, no visible growth
T9 construct: ec305

Escherichia coli ec310 = system: T10, Escherichia coli ec310; experiment: microbe, parasite or virus in culture; parameters: species or system bacteria; CLSI broth microdilution MIC, no visible growth
T10 construct: ec310

[3] = system: T11, Escherichia coli ATCC BAA2471; experiment: microbe, parasite or virus in culture; parameters: species or system bacteria; CLSI broth microdilution MIC, no visible growth
T11 construct: ATCC BAA-2471

Escherichia coli ec302 = system: T12, Escherichia coli ec302; experiment: microbe, parasite or virus in culture; parameters: species or system bacteria; CLSI broth microdilution MIC, no visible growth
T12 construct: ec302

[4] = system: T13, Escherichia coli 95882 CW-2011; experiment: microbe, parasite or virus in culture; parameters: species or system bacteria; CLSI broth microdilution MIC, no visible growth
T13 construct: 95882 CW-2011

Escherichia coli ec309 = system: T14, Escherichia coli ec309; experiment: microbe, parasite or virus in culture; parameters: species or system bacteria; CLSI broth microdilution MIC, no visible growth
T14 construct: ec309

[5] = system: T15, Escherichia coli ATCC 35218; experiment: microbe, parasite or virus in culture; parameters: species or system bacteria; CLSI broth microdilution MIC, no visible growth
T15 construct: ATCC 35218

E. coli ATCC 25922 [6] = system: T7, E. coli ATCC 25922; experiment: microbe, parasite or virus in culture; parameters: species or system bacteria; CLSI broth microdilution MIC, no visible growth; conditions: Escherichia coli; remark: listed apart in the source
[7] = system: T16, Citrobacterfreundii ATCC 8090; experiment: organism not typed; parameters: species or system bacteria; CLSI broth microdilution MIC, no visible growth; conditions: read-out: Table 5 IMI MIC
T16 construct: ATCC 8090

[8] = system: T17, Escherichia coli 70122 CW-2007; experiment: microbe, parasite or virus in culture; parameters: species or system bacteria; CLSI broth microdilution MIC, no visible growth; conditions: 70122CW2007, read-out: CAZ MIC
T17 construct: 70122 CW-2007

For `C[C@H]1CC[C@]2(NC1)O[C@H]1C[C@H]3[C@@H]4CC[C@H]5CC(NC[C@H](N)Cc6c[nH]c7ccccc67)CC[C@]5(C)[C@H]4CC[C@]3(C)[C@H]1[C@@H]2C` (stereo partly drawn) [TM-247], the MIC ([1]; ATCC29740, read-out: TM-247 MIC) was 2 µg/mL (≈ 3.41 µM), the IC50 (S. aureus ATP synthase) was 1060 ± 240 nM and the MIC (S. aureus ATCC 29740hemB) was at most 0.25 µg/mL. It also gave an IC50 (E. coli ATP synthase) of 2120 ± 320 nM, an MIC (E. coli MC4100 WT; read-out: TM-247 MIC) of 16 µg/mL (≈ 27.3 µM) and an MIC (E. coli MC4100 lptD4213) of 2 µg/mL (≈ 3.41 µM). The MIC (E. coli MC4100 acrAB) was 4 µg/mL (≈ 6.82 µM) and the MIC (E. coli ATCC 25922 [2]; ATCC25922, read-out: TM-247 MIC) was 8 µg/mL (≈ 13.6 µM).
With `CN(C)[C@@H]1C(O)=C(C(N)=O)C(=O)[C@@]2(O)C(O)=C3C(=O)c4c(O)cccc4[C@@](C)(O)[C@H]3C[C@@H]12` [TET, tetracycline] the MIC (Escherichia coli ec308; EC308, read-out: TET MIC) was 128 µg/mL (≈ 288 µM), the MIC (Escherichia coli ec305; EC305, read-out: TET MIC) was over 128 µg/mL and the MIC (Escherichia coli ec310; EC310, read-out: TET MIC) was 2 µg/mL (≈ 4.5 µM). For the same compound, the MIC ([3]; ATCCBAA2471, read-out: TET MIC) was 128 µg/mL (≈ 288 µM), the MIC (Escherichia coli ec302; EC302, read-out: TET MIC) was 2 µg/mL (≈ 4.5 µM) and the MIC ([4]; 95882CW2011, read-out: TET MIC) was 1 µg/mL (≈ 2.25 µM). It also gave an MIC (Escherichia coli ec309; EC309, read-out: TET MIC) of 2 µg/mL (≈ 4.5 µM), an MIC ([5]; ATCC35218, read-out: TET MIC) of 0.25 µg/mL (≈ 0.563 µM) and an MIC (E. coli ATCC 25922 [6]; ATCC25922, read-out: TET MIC) of 1 µg/mL (≈ 2.25 µM).
For `C[C@@H](O)[C@H]1C(=O)N2C(C(=O)O)=C(SCCNC=N)C[C@H]12` [IMI, imipenem], the MIC [7] was 1 µg/mL (≈ 3.34 µM).
Compound `C[C@H]1CC[C@]2(NC1)O[C@H]1C[C@H]3[C@@H]4CC[C@H]5CC(NC[C@H](N)Cc6ccc(C(F)(F)F)cc6)CC[C@]5(C)[C@H]4CC[C@]3(C)[C@H]1[C@@H]2C` (stereo partly drawn) [TM-303] has an MIC ([1]; ATCC29740, read-out: TM-303 MIC) of 4 µg/mL (≈ 6.49 µM), an IC50 (S. aureus ATP synthase) of 1320 ± 220 nM and an MIC (S. aureus ATCC 29740hemB) of at most 0.25 µg/mL. It also gave an IC50 (E. coli ATP synthase) of 3150 ± 730 nM, an MIC (E. coli MC4100 WT; read-out: TM-303 MIC) of 16 µg/mL (≈ 26 µM) and an MIC (E. coli MC4100 lptD4213) of 2 µg/mL (≈ 3.25 µM). It also gave an MIC (E. coli MC4100 acrAB) of 4 µg/mL (≈ 6.49 µM) and an MIC (E. coli ATCC 25922 [2]; ATCC25922, read-out: TM-303 MIC) of 8 µg/mL (≈ 13 µM).
Work on `CC(C)(O/N=C(\C(=O)N[C@@H]1C(=O)N2C(C(=O)[O-])=C(C[n+]3ccccc3)CS[C@H]12)c1csc(N)n1)C(=O)O` [CAZ, ceftazidime] yielded an MIC (Escherichia coli ec308; EC308, read-out: CAZ MIC) of 128 µg/mL (≈ 234 µM), an MIC (Escherichia coli ec305; EC305, read-out: CAZ MIC) of 1 µg/mL (≈ 1.83 µM) and an MIC (Escherichia coli ec310; EC310, read-out: CAZ MIC) of 64 µg/mL (≈ 117 µM). For the same compound, the MIC ([3]; ATCCBAA2471, read-out: CAZ MIC) was over 128 µg/mL, the MIC [8] was 64 µg/mL (≈ 117 µM) and the MIC (Escherichia coli ec302; EC302, read-out: CAZ MIC) was over 128 µg/mL. It also gave an MIC ([4]; 95882CW2011, read-out: CAZ MIC) of 128 µg/mL (≈ 234 µM), an MIC (Escherichia coli ec309; EC309, read-out: CAZ MIC) of 64 µg/mL (≈ 117 µM) and an MIC ([5]; ATCC35218, read-out: CAZ MIC) of 0.25 µg/mL (≈ 0.457 µM). It also gave an MIC (E. coli ATCC 25922 [6]; ATCC25922, read-out: CAZ MIC) of 0.12 µg/mL (≈ 0.22 µM).
